Results on 28 compounds are retold here after US20160060260A1, “BROMODOMAIN INHIBITORS FOR TREATING DISEASE” (Board of Regents, The University of Texas System, priority 2014, published 2016).

The assay addresses T1, Recombinant human His-tagged Trim24-PHD-bromodomain (Homo sapiens, UniProt O15164).
T1 construct: Recombinant human His-tagged Trim24-PHD-bromodomain (produced in-house); made in house
T1 sequence (O15164 824-1006 limits assumed): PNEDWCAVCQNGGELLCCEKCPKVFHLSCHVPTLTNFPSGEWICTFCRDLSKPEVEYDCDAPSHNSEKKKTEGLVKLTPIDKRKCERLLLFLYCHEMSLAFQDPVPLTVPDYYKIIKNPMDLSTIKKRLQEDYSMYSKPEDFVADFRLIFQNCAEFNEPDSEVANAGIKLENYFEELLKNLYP
As to the kind of experiment: Trim24 AlphaScreen Assay. It counts as binding. The conditions noted are these: 5 nM Trim24 protein, 15 nM biotinylated H3K23ac (1-33aa) peptide. The method in brief: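 His-tagged Trim24-PHD-bromodomain, biotinylated H3K23ac (1-33aa) peptide and compound incubated 1 h at room temperature in 50 mM Hepes pH 7.5, 100 mM NaCl, 0.12 mM Triton X-100.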
Broadly, the IC50 is the concentration that gives 50% inhibition. With `Cc1nc(S(=O)(=O)Nc2cc3c(cc2Oc2cccc(OCC4CC4)c2)n(C)c(=O)n3C)cn1C` [Example 58, N-(6-(3-(cyclopropylmethoxy)phenoxy)-1,3-dimethyl-2-oxo-2,3-dihydro-1H-benzo[d]imidazol-5-yl)-1,2-dimethyl-1H-imidazole-4-sulfonamide], the IC50 was 10 to 100 nM.

As for `Cn1cnc(S(=O)(=O)Nc2cc3c(cc2Oc2cccc(OCc4cccc(C#N)c4)c2)n(C)c(=O)n3C)c1` [Example 40, N-(6-(3-((3-cyanobenzyl)oxy)phenoxy)-1,3-dimethyl-2-oxo-2,3-dihydro-1H-benzo[d]imidazol-5-yl)-1-methyl-1H-imidazole-4-sulfonamide], the IC50 was greater than 1000 nM.

Take `CCCOc1cc(OCCCOC)cc(Oc2cc3c(cc2NS(=O)(=O)c2cccnc2)n(C)c(=O)n3C)c1` [Example 137, N-(6-(3-(3-methoxypropoxy)-5-propoxyphenoxy)-1,3-dimethyl-2-oxo-2,3-dihydro-1H-benzo[d]imidazol-5-yl)pyridine-3-sulfonamide]: the IC50 lay in the range of 10 to 100 nM.

Regarding `Cc1ccsc1S(=O)(=O)Nc1cc2c(cc1Oc1cccc(OCc3ccccc3)c1)n(C)c(=O)n2C` [Example 24, N-(6-(3-(benzyloxy)phenoxy)-1,3-dimethyl-2-oxo-2,3-dihydro-1H-benzo[d]imidazol-5-yl)-3-methylthiophene-2-sulfonamide], the IC50 is greater than 1000 nM.

For `Cn1cc(S(=O)(=O)Nc2cc3c(cc2Oc2cccc(OC(F)(F)F)c2)n(C)c(=O)n3C)cn1` [Example 73, N-(1,3-dimethyl-2-oxo-6-(3-(trifluoromethoxy)phenoxy)-2,3-dihydro-1H-benzo[d]imidazol-5-yl)-1-methyl-1H-pyrazole-4-sulfonamide], the IC50 was greater than 1000 nM.

For the compound `CCCOc1cc(OCC2CC2)cc(Oc2cc3c(cc2NS(=O)(=O)c2cn(C)cn2)n(C)c(=O)n3C)c1` [Example 126, N-(6-(3-(cyclopropylmethoxy)-5-propoxyphenoxy)-1,3-dimethyl-2-oxo-2,3-dihydro-1H-benzo[d]imidazol-5-yl)-1-methyl-1H-imidazole-4-sulfonamide], the IC50 lay in the range of 10 to 100 nM.

Consider `CCOc1cc(OCC(C)C)cc(Oc2cc3c(cc2NS(=O)(=O)c2cn(C)cn2)n(C)c(=O)n3C)c1` [Example 225, N-(6-(3-ethoxy-5-isobutoxyphenoxy)-1,3-dimethyl-2-oxo-2,3-dihydro-1H-benzo[d]imidazol-5-yl)-1-methyl-1H-imidazole-4-sulfonamide], for which the IC50 was in the range of 10 to 100 nM.

As for `CCCOc1cc(OCCCC[N+](C)(C)C)cc(Oc2cc3c(cc2NS(=O)(=O)c2ccc(OC)c(OC)c2)n(C)c(=O)n3C)c1` [Example 254, 4-(3-((6-(3,4-dimethoxyphenylsulfonamido)-1,3-dimethyl-2-oxo-2,3-dihydro-1H-benzo[d]imidazol-5-yl)oxy)-5-propoxyphenoxy)-N,N,N-trimethylbutan-1-aminium 2,2,2-trifluoroacetate], the half-inhibitory concentration (IC50) is 1 to 10 nM.

Regarding `CCCOc1cc(OCCCOC)cc(Oc2cc3c(cc2NS(=O)(=O)c2cccc(C#N)c2)n(C)c(=O)n3C)c1` [Example 165, 3-cyano-N-(6-(3-(3-methoxypropoxy)-5-propoxyphenoxy)-1,3-dimethyl-2-oxo-2,3-dihydro-1H-benzo[d]imidazol-5-yl)benzenesulfonamide], the IC50 was in the range of 10 to 100 nM.

Take `COc1cccc(S(=O)(=O)Nc2cc3c(cc2Oc2cccc(OCc4ccccc4)c2)n(C)c(=O)n3C)c1` [Example 18, N-(6-(3-(benzyloxy)phenoxy)-1,3-dimethyl-2-oxo-2,3-ddihydro-1H-benzo[d]imidazol-5-yl)-3-methoxybenzenesulfonamide]: the IC50 fell in the range of 100 to 1000 nM.

As to `COCCCOc1cc(OCC(F)(F)F)cc(Oc2cc3c(cc2NS(=O)(=O)c2ccc(OC)c(OC)c2)n(C)c(=O)n3C)c1` [Example 195], the IC50 was in the range of 10 to 100 nM.

As to `Cn1cnc(S(=O)(=O)Nc2cc3c(cc2Oc2cccc(OCCCO)c2)n(C)c(=O)n3C)c1` [Example 240, N-(6-(3-(3-hydroxypropoxy)phenoxy)-1,3-dimethyl-2-oxo-2,3-dihydro-1H-benzo[d]imidazol-5-yl)-1-methyl-1H-imidazole-4-sulfonamide], the IC50 was 100 to 1000 nM.

With `CCCOc1ccc(F)c(Oc2cc3c(cc2NS(=O)(=O)c2cn(C)c(C)n2)n(C)c(=O)n3C)c1` [Example 133, N-(6-(2-fluoro-5-propoxyphenoxy)-1,3-dimethyl-2-oxo-2,3-ddihydro-1H-benzo[d]imidazol-5-yl)-1,2-dimethyl-1H-imidazole-4-sulfonamide], the IC50 fell in the range of 100 to 1000 nM.

For the compound `Cn1c(=O)n(C)c2cc(Oc3cccc(OCC4CC4)c3)c(NS(=O)(=O)c3cccnc3)cc21` [Example 128, N-(6-(3-(cyclopropylmethoxy)phenoxy)-1,3-dimethyl-2-oxo-2,3-dihydro-1H-benzo[d]imidazol-5-yl)pyridine-3-sulfonamide], the IC50 fell in the range of 10 to 100 nM.

Regarding `CCCOc1cc(Oc2cc3c(cc2NS(=O)(=O)c2cn(C)cn2)n(C)c(=O)n3C)ccc1F` [Example 105, N-(6-(4-fluoro-3-propoxyphenoxy)-1,3-dimethyl-2-oxo-2,3-dihydro-1H-benzo[d]imidazol-5-yl)-1-methyl-1H-imidazole-4-sulfonamide], the IC50 is 10 to 100 nM.

On to `CCCOc1cc(OCCCOC)cc(Oc2cc3c(cc2NS(=O)(=O)c2ccc(OCC)c(C)c2)n(C)c(=O)n3C)c1` [Example 161, 4-ehoxy-N-(6-(3-(3-methoxypropoxy)-5-propoxyphenoxy)-1,3-dimethyl-2-oxo-2,3-dihydro-benzo[d]imidazol-5-yl)-3-methylbenzenesulfonamide], for which the IC50 lay in the range of 100 to 1000 nM.

Consider `CCCOc1cccc(Oc2cc3c(cc2NS(=O)(=O)c2cn(C)cn2)n(C)c(=O)n3C)c1` [Example 83, N-(1,3-dimethyl-2-oxo-6-(3-propoxyphenoxy)-2,3-dihydro-1H-benzo[d]imidazol-5-yl)-1-methyl-1H-imidazole-4-sulfonamide], for which the IC50 lay in the range of 10 to 100 nM.

Take `Cn1c(=O)n(C)c2cc(Oc3cccc(OCc4ccccc4)c3)c(NS(=O)(=O)c3cccc(Br)c3)cc21` [Example 38, N-(6-(3-(benzyloxy)phenoxy)-1,3-dimethyl-2-oxo-2,3-dihydro-1H-benzo[d]imidazol-5-yl)-3-bromobenzenesulfonamide]: the IC50 was greater than 1000 nM.

Turning to `Cc1ccccc1S(=O)(=O)Nc1cc2c(cc1Oc1cccc(OCc3ccccc3)c1)n(C)c(=O)n2C` [Example 35, N-(6-(3-(benzyloxy)phenoxy)-1,3-dimethyl-2-oxo-2,3-dihydro-1H-benzo[d]imidazol-5-yl)-2-methylbenzenesulfonamide], the IC50 was greater than 1000 nM.

For the compound `Cc1nc(S(=O)(=O)Nc2cc3c(cc2Oc2cccc(OCC(=O)N(C)C)c2)n(C)c(=O)n3C)cn1C` [Example 56, 2-(3-((6-((1,2-dimethyl-1H-imidazole)-4-sulfonamido)-1,3-dimethyl-2-oxo-2,3-dihydro-1H-benzo[d]imidazol-5-yl)oxy)phenoxy)-N,N-dimethylacetamide], the IC50 is greater than 1000 nM.

Regarding `C=CCOc1cccc(Oc2cc3c(cc2NS(=O)(=O)c2cn(C)cn2)n(C)c(=O)n3C)c1` [Example 74, N-(6-(3-(allyloxy)phenoxy)-1,3-dimethyl-2-oxo-2,3-dihydro-1H-benzo[d]imidazol-5-yl)-1-methyl-1H-imidazole-4-sulfonamide], the IC50 was in the range of 100 to 1000 nM.

Turning to `CCCOc1cc(OCCCCCCN(C)C)cc(Oc2cc3c(cc2NS(=O)(=O)c2cn(C)cn2)n(C)c(=O)n3C)c1` [Example 188, N-(6-(3-((6-(dimethylamino)hexyl)oxy)-5-propoxyphenoxy)-1,3-dimethyl-2-oxo-2,3-dihydro-1H-benzo[d]imidazol-5-yl)-1-methyl-1H-imidazole-4-sulfonamide], the IC50 was 10 to 100 nM.

For `COCCCOc1cc(OCC(F)(F)F)cc(Oc2cc3c(cc2NS(=O)(=O)c2cnn(C)c2C)n(C)c(=O)n3C)c1` [Example 204, N-(6-(3-(3-methoxypropoxy)-5-(2,2,2-trifluoroethoxy)phenoxy)-1,3-dimethyl-2-oxo-2,3-dihydro-1H-benzo[d]imidazol-5-yl)-1,5-dimethyl-1H-pyrazole-4-sulfonamide], the IC50 lay within 10 to 100 nM.

For `CCCOc1cccc(Oc2cc3c(cc2NS(=O)(=O)c2c(C)n[nH]c2C)n(C)c(=O)n3C)c1` [Example 92, N-(1,3-dimethyl-2-oxo-6-(3-propoxyphenoxy)-2,3-dihydro-1H-benzo[d]imidazol-5-yl)-3,5-dimethyl-1H-pyrazole-4-sulfonamide], the half-inhibitory concentration (IC50) was 10 to 100 nM.

For the compound `CCCOc1cc(OCCCCN)cc(Oc2cc3c(cc2NS(=O)(=O)c2cn(C)c(C)n2)n(C)c(=O)n3C)c1` [Example 214], the IC50 lay in the range of 10 to 100 nM.

Consider `CCCOc1cccc(Oc2cc3c(cc2NS(=O)(=O)c2cn(C)cn2)n(C)c(=O)n3C)c1C` [Example 103, N-(1,3-dimethyl-6-(2-methyl-3-propoxyphenoxy)-2-oxo-2,3-dihydro-1H-benzo[d]imidazol-5-yl)-1-methyl-1H-imidazole-4-sulfonamide], for which the IC50 was greater than 1000 nM.

On to `C=CCOc1cccc(Oc2cc3c(cc2NS(=O)(=O)c2ccccn2)n(C)c(=O)n3C)c1` [Example 144, N-(6-(3-(allyloxy)phenoxy)-1,3-dimethyl-2-oxo-2,3-dihydro-1H-benzo[d]imidazol-5-yl)pyridine-2-sulfonamide], for which the IC50 lay within 100 to 1000 nM.

With `CCCOc1cc(OCCCCCCO)cc(Oc2cc3c(cc2NS(=O)(=O)c2cccc(C(=O)OC)c2)n(C)c(=O)n3C)c1` [Example 185, methyl 3-(N-(6-(3-((6-hydroxynhexyl)oxy)-5-propoxyphenoxy)-1,3-dimethyl-2-oxo-2,3-dihydro-1H-benzo[d]imidazol-5-yl)sulfamoyl)benzoate], the IC50 fell in the range of 100 to 1000 nM.
